Source: US20260356810A1, “NOVEL PIPERAZINE-BASED SULFONAMIDES AND THEIR USE AS NEUROPROTECTIVE AND/OR NEURORESTORATIVE AGENTS” (GENECODE, priority 2022, published 2026)

These compounds were tested against T1, GFRα1-RET (Homo sapiens, UniProt P56159) (assay: Luciferase assay: activation of Elk1 signaling in reporter-gene cells expressing GFRα1-RET (MG87 murine fibroblast stably transfected with PathDetect Elk-1, GFRα1, and RET)). Conditions: Table 4; MG87 murine fibroblasts with PathDetect Elk-1, GFRα1, RET; 6 concentrations, duplicate, two times independently; agonist/activator activity; read-out: Luciferase Assay EC50.
T1 construct: expressed in transfected cells; host or cells: MG87 murine fibroblast
T1 sequence (P56159 25-429 limits assumed): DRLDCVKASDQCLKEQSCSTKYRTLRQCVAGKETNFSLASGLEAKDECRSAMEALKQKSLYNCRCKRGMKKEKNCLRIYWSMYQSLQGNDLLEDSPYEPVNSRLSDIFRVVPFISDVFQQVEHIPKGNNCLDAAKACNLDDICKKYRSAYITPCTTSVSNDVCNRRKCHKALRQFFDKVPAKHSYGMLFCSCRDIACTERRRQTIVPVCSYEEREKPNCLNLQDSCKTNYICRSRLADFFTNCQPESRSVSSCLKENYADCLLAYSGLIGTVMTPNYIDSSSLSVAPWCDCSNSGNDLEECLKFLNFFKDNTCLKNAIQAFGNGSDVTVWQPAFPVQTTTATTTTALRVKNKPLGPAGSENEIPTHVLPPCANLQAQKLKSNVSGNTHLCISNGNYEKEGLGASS
T1 sequence (P07949 29-1114 partner): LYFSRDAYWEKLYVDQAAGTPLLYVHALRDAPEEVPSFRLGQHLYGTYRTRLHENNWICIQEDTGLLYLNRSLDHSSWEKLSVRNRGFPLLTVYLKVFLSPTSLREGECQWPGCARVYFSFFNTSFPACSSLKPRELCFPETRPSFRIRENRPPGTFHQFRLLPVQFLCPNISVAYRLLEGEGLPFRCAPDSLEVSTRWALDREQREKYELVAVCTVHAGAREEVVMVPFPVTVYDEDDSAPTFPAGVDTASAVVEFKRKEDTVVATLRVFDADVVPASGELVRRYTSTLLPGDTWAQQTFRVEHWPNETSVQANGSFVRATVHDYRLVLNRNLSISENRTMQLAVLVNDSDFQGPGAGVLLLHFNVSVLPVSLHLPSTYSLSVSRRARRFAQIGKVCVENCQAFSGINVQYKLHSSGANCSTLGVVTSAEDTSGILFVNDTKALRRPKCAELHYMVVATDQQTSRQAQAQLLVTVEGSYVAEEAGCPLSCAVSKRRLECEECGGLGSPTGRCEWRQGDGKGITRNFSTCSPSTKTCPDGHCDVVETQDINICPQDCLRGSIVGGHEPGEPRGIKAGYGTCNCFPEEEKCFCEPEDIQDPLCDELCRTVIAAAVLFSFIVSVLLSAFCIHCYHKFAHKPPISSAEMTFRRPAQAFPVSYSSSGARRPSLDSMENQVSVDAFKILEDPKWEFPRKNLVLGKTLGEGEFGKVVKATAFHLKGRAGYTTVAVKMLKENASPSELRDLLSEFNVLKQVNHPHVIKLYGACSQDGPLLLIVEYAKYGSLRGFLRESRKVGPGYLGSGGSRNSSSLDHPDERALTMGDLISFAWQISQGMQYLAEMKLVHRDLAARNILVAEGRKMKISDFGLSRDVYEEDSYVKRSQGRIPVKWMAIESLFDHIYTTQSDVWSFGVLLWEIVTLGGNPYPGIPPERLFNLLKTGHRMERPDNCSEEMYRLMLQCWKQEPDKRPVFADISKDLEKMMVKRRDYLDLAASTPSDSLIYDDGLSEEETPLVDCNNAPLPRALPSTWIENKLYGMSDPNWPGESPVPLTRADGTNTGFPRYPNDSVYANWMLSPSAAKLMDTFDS
Format: cell-based
Experimental: The purpose of this experiment was to evaluate the GFRα1-RET activity of the compounds 001-060 according to the invention.
The compounds were tested for their activating activity of Elk1 signaling using the previously developed reporter-gene-based system in cells expressing GFRα1-RET (MG87 murine fibroblast stably transfected with PathDetect Elk-1, GFRα1, and RET) disclosed in Sidorova, Y. A. et al.: “Persephin signaling through GFRα1: The potential for the treatment of Parkinson's disease.” Molecular and Cellular Neuroscience, July 2010, Vol. 44, pp. 223-232. DOI: 10.1016/j.mcn.2010.03.009. For EC50 determination, a dose-response test was performed using 6 concentrations of each tested compound. Dose-response curves were fitted using the sigmoidal dose-response (variable slope) analysis in GraphPad Prism program (Graph Pad Inc) and EC50 of agonist/activator activity was calculated. Dose-response experiments were all performed in duplicate, two times independently.
The compounds were tested for their activating activity of Elk1 signaling using the same materials and methods than for the compounds according to the invention (Example 2 herein, section “Materials and methods”).

EC50	Structure (SMILES)
1 to 5 µM	O=C(c1ccc(F)cc1Cl)N1CCN(c2cc(S(=O)(=O)N3CCC(F)CC3)cc(Cl)c2O)CC1 [Compound 057, (2-chloro-4-fluoro-phenyl)-[4-[3-chloro-5-[(4-fluoro-1-piperidyl)sulfonyl]-2-hydroxy-phenyl]piperazin-1-yl]methanone]
< 1 µM	CC(C)(C)NS(=O)(=O)c1cc(Cl)c(O)c(N2CCN(C(=O)c3ccc(F)cc3Cl)CC2)c1 [Compound 058, N-tert-butyl-3-chloro-5-[4-(2-chloro-4-fluoro-benzoyl)piperazin-1-yl]-4-hydroxy-benzenesulfonamide]
< 1 µM	CN(CC1CC1)S(=O)(=O)c1cc(Cl)c(O)c(N2CCN(C(=O)c3ccc(F)cc3Cl)CC2)c1 [Compound 059, 3-chloro-5-[4-(2-chloro-4-fluoro-benzoyl)piperazin-1-yl]-N-(cyclopropylmethyl)-4-hydroxy-N-methyl-benzenesulfonamide]
1 to 5 µM	COc1ccc(S(=O)(=O)N2CCCC2(C)C)cc1N1CCN(C(=O)c2ccc(F)cc2Cl)CC1 [Compound 060, (2-chloro-4-fluoro-phenyl)-[4-[5-(2,2-dimethylpyrrolidin-1-yl)sulfonyl-2-methoxy-phenyl]piperazin-1-yl]methanone]

The remaining lines, values behind:

Structure (SMILES)	EC50
COc1ccc(S(=O)(=O)N2CCN(CCc3ccc(Cl)cc3)CC2)cc1N1CCN(C(=O)c2ccc(F)cc2Cl)CC1 [Compound 051, (2-chloro-4-fluoro-phenyl)-[4-[5-[4-[2-(4-chlorophenyl)ethyl]piperazin-1-yl]sulfonyl-2-methoxy-phenyl]piperazin-1-yl]methanone]	1 to 5 µM
COc1ccc(S(=O)(=O)N2CCN(CCc3ccc(F)cc3)CC2)cc1N1CCN(C(=O)c2ccc(F)cc2Cl)CC1 [Compound 052, (2-chloro-4-fluoro-phenyl)-[4-[5-[4-[2-(4-fluorophenyl)ethyl]piperazin-1-yl]sulfonyl-2-methoxy-phenyl]piperazin-1-yl]methanone]	1 to 5 µM
Cc1cc(S(=O)(=O)N2CCC(c3ccccc3)CC2)cc(N2CCN(C(=O)c3ccc(F)cc3Cl)CC2)c1O [Compound 055, (2-chloro-4-fluoro-phenyl)-[4-[2-hydroxy-3-methyl-5-[(4-phenyl-1-piperidyl)sulfonyl]phenyl]piperazin-1-yl]methanone]	< 1 µM
Cc1cc(S(=O)(=O)N2CCC(c3ccc(F)cc3)CC2)cc(N2CCN(C(=O)c3ccc(F)cc3Cl)CC2)c1O [Compound 056, (2-chloro-4-fluoro-phenyl)-[4-[5-[[4-(4-fluorophenyl)-1-piperidyl]sulfonyl]-2-hydroxy-3-methyl-phenyl]piperazin-1-yl]methanone]	< 1 µM

Same assay, conditions: Table 6, comparison with comparative compounds; values for 001, 009, 010 reported from Table 4; MG87 GFRα1-RET cells; read-out: Luciferase Assay EC50

EC50	Structure (SMILES)
> 50 µM	COc1ccc(S(=O)(=O)N2CCC(Cc3ccccc3)CC2)cc1N1CCN(C(=O)c2cc(F)ccc2C(F)(F)F)CC1 [Compound C01, (4-(5-((4-benzylpiperidin-1-yl)sulfonyl)-2-methoxyphenyl)piperazin-1-yl)(5-fluoro-2-(trifluoromethyl)phenyl)methanone, reference compound]
> 50 µM	CCN(CC)S(=O)(=O)c1ccc(OC)c(N2CCN(C(=O)c3cc(F)ccc3C(F)(F)F)CC2)c1 [Compound C02, N,N-diethyl-3-(4-(5-fluoro-2-(trifluoromethyl)benzoyl)piperazin-1-yl)-4-methoxybenzenesulfonamide, reference compound]

Same assay, conditions: text statement on Table 6 results, GFRα1-RET luciferase assay; read-out: EC50

EC50	Structure (SMILES)
> 50 µM	COc1ccc(S(=O)(=O)N2CCC(Cc3ccccc3)CC2)cc1N1CCN(C(=O)c2cc(F)ccc2C(F)(F)F)CC1 [Compound C01, (4-(5-((4-benzylpiperidin-1-yl)sulfonyl)-2-methoxyphenyl)piperazin-1-yl)(5-fluoro-2-(trifluoromethyl)phenyl)methanone, reference compound]
> 50 µM	CCN(CC)S(=O)(=O)c1ccc(OC)c(N2CCN(C(=O)c3cc(F)ccc3C(F)(F)F)CC2)c1 [Compound C02, N,N-diethyl-3-(4-(5-fluoro-2-(trifluoromethyl)benzoyl)piperazin-1-yl)-4-methoxybenzenesulfonamide, reference compound]
